{"source": "patent US12275731B2", "about": "“Azaindole inhibitors of wild-type and mutant forms of LRRK2” (DANA-FARBER CANCER INSTITUTE, INC., priority 2018, dated 2025)", "assay_in_all_cases": "KinomeScan profiling", "type_in_all_cases": "binding", "key": {"[1]": {"molecular_target": "EGFR(L747-E749del, A750P) (Homo sapiens, UniProt P00533, A750P/DEL747-749)", "conditions": "read-out: % control", "outline": "(§1)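 1 μM cpd in DMSO; 468-kinase panel; readout RLU. % ctrl = (cpd − pos ctrl)/(neg ctrl − pos ctrl) ×100. Pos ctrl = 0%, DMSO = 100%. Hit cut-off <35%.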"}, "ERK5": {"molecular_target": "ERK5 (Homo sapiens, UniProt Q13164)", "sequence (Q13164 whole entry)": "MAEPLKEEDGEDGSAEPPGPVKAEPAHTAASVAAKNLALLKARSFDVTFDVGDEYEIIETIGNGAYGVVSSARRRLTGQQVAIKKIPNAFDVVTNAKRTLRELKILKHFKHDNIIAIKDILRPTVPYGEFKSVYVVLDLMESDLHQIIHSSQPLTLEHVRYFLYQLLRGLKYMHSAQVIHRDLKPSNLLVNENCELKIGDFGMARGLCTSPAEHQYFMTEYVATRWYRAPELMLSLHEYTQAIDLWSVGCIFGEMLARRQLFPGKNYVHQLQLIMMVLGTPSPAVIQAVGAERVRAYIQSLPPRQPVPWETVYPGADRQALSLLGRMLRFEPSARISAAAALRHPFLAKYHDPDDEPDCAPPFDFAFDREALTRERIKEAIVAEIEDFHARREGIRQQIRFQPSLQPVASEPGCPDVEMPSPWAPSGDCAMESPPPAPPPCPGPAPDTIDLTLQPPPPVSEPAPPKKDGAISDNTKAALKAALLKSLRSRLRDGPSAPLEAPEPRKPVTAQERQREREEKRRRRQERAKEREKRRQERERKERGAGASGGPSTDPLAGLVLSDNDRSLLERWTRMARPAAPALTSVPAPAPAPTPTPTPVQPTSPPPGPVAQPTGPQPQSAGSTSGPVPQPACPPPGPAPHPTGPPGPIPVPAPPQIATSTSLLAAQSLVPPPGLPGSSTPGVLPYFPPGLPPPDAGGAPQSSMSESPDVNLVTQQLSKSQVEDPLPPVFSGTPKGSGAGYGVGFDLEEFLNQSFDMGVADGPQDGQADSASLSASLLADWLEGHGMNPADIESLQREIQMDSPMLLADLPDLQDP", "conditions": "ERK5, 1 μM; read-out: % control", "outline": "as §1"}, "ZAK": {"molecular_target": "ZAK (Homo sapiens, UniProt Q9NYL2)", "sequence (Q9NYL2 whole entry)": "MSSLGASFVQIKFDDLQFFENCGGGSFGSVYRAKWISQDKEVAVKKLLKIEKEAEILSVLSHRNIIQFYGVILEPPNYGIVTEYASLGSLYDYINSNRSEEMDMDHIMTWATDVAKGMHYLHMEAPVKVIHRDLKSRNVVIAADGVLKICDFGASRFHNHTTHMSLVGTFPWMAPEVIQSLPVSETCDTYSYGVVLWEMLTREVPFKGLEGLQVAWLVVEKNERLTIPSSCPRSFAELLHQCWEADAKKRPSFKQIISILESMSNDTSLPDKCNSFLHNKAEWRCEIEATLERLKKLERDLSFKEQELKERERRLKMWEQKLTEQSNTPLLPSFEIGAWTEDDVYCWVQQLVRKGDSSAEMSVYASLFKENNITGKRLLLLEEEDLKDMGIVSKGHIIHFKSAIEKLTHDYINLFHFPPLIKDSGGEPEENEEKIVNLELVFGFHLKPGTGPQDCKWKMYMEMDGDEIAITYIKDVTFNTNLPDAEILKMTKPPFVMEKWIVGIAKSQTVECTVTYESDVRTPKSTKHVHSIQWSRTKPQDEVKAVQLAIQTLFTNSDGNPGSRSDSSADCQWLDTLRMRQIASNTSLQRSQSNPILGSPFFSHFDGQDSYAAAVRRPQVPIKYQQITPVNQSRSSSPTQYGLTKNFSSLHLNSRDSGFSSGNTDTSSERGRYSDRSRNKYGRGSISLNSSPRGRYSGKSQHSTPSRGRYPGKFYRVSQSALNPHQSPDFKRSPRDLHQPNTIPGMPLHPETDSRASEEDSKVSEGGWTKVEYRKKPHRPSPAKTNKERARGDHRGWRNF", "conditions": "read-out: % control", "outline": "as §1"}, "VEGFR2": {"molecular_target": "VEGFR2 (Homo sapiens, UniProt P35968)", "sequence (P35968 20-1356)": "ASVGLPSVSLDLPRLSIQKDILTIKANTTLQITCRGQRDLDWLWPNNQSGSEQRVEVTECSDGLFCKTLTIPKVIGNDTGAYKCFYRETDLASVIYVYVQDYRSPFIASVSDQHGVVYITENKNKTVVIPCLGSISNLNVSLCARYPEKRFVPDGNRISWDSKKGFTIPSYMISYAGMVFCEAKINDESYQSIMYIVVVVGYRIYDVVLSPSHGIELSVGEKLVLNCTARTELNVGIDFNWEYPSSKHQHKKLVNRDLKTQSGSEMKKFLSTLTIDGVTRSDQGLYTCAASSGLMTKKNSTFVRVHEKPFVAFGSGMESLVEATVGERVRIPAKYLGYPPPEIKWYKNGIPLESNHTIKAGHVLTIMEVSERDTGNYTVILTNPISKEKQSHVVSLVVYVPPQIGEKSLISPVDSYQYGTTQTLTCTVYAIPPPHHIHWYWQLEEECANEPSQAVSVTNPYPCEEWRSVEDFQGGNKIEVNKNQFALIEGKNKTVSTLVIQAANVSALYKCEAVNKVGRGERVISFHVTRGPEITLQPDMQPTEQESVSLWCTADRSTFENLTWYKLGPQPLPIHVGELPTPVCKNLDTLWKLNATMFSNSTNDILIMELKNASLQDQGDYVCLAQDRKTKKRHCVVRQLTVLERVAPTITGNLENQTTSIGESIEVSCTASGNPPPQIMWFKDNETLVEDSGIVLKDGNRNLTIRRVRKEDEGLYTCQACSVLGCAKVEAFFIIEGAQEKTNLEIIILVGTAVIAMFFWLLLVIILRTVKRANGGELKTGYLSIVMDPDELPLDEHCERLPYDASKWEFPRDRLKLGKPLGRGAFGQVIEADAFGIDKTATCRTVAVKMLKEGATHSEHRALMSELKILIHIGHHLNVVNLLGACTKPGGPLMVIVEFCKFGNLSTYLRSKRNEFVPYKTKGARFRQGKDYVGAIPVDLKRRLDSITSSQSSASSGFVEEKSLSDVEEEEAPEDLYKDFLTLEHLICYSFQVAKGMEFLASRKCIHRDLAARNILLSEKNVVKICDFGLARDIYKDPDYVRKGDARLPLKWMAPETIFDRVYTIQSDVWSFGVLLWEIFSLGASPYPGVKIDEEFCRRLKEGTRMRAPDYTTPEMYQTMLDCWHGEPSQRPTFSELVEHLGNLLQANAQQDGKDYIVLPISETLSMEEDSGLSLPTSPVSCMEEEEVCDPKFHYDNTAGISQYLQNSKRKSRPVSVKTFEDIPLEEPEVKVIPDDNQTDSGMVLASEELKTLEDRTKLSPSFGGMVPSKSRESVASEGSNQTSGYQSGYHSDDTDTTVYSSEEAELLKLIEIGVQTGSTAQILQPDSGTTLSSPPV", "conditions": "VEGFR2, 1 μM; read-out: % control", "outline": "as §1"}, "CDC2L1": {"molecular_target": "CDC2L1 (Homo sapiens, UniProt P21127)", "conditions": "CDC2L1, 1 μM; read-out: % control", "outline": "as §1"}, "PIK3CA(E545A)": {"molecular_target": "T1, PIK3CA(E545A) (Homo sapiens, UniProt P42336, E545A)", "T1 construct": "purchased KinomeScan® (panel service)", "T1 sequence (P42336 whole entry E545A)": "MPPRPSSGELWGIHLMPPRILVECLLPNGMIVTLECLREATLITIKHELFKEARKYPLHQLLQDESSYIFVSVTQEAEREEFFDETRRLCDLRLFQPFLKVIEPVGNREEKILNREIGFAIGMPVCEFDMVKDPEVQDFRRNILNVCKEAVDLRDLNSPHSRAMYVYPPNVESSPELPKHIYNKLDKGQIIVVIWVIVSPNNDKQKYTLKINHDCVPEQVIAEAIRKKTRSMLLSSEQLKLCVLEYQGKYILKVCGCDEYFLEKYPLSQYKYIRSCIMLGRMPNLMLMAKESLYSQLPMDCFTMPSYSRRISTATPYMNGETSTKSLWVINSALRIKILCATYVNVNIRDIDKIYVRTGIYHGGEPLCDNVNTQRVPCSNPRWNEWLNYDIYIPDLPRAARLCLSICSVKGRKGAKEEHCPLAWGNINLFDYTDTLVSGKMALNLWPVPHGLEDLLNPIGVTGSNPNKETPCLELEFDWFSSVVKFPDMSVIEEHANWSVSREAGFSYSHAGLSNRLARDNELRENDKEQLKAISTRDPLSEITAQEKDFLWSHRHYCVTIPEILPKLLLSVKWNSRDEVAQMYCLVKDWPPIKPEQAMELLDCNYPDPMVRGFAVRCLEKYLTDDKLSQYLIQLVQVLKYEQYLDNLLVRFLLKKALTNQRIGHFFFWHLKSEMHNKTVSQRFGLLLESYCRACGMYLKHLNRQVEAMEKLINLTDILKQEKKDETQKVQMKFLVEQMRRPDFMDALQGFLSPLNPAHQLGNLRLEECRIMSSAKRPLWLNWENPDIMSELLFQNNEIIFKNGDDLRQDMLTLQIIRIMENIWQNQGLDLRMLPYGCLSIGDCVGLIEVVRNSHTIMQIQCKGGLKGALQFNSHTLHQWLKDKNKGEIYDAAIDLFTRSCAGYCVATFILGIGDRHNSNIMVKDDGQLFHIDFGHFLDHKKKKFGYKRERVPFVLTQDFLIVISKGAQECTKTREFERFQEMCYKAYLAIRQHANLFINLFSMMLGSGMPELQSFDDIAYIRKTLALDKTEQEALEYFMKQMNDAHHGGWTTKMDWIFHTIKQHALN", "conditions": "read-out: % control", "outline": "as §1"}, "MINK": {"molecular_target": "MINK (Homo sapiens, UniProt Q8N4C8)", "conditions": "read-out: % control", "outline": "as §1"}, "ALK": {"molecular_target": "T2, ALK (Homo sapiens, UniProt Q9UM73)", "T2 construct": "purchased KinomeScan®", "conditions": "read-out: % control", "outline": "as §1"}, "HIPK4": {"molecular_target": "T3, HIPK4 (Homo sapiens, UniProt Q8NE63)", "T3 sequence (Q8NE63 1-616)": "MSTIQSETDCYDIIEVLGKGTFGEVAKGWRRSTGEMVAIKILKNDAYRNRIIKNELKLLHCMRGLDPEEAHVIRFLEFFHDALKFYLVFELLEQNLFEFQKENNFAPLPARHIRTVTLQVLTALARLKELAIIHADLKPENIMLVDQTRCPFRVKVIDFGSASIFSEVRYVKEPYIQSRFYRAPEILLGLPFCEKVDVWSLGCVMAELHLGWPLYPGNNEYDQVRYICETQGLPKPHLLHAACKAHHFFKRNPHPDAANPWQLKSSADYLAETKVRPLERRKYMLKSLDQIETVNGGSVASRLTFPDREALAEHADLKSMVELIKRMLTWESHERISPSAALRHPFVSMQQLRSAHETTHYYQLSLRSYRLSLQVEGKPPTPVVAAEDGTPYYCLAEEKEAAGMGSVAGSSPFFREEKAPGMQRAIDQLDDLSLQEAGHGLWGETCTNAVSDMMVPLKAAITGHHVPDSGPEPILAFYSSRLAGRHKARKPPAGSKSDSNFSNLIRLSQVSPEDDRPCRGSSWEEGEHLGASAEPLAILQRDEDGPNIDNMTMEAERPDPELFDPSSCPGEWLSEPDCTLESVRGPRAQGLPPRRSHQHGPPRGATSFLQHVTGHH", "conditions": "HIPK4, 1 μM; read-out: % control", "outline": "as §1"}, "EPHA4": {"molecular_target": "EPHA4 (Homo sapiens, UniProt P54764)", "conditions": "EPHA4, 1 μM; read-out: % control", "outline": "as §1"}, "MEK3": {"molecular_target": "T4, MEK3 (Homo sapiens, UniProt P46734)", "T4 sequence (P46734 1-347)": "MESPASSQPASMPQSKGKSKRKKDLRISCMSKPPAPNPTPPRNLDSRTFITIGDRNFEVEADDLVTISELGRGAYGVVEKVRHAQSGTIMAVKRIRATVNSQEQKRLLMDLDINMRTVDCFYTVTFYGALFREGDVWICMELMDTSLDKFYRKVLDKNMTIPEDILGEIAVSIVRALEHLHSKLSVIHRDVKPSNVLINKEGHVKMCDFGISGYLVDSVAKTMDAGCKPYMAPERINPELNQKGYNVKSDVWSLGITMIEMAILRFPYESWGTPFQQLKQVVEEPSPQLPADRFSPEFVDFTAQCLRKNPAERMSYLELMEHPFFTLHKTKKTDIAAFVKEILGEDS", "conditions": "MEK3, 1 μM; read-out: % control", "outline": "as §1"}, "BMX": {"molecular_target": "T5, BMX (Homo sapiens, UniProt P51813)", "T5 construct": "purchased KinomeScan®", "T5 sequence (P51813 1-675)": "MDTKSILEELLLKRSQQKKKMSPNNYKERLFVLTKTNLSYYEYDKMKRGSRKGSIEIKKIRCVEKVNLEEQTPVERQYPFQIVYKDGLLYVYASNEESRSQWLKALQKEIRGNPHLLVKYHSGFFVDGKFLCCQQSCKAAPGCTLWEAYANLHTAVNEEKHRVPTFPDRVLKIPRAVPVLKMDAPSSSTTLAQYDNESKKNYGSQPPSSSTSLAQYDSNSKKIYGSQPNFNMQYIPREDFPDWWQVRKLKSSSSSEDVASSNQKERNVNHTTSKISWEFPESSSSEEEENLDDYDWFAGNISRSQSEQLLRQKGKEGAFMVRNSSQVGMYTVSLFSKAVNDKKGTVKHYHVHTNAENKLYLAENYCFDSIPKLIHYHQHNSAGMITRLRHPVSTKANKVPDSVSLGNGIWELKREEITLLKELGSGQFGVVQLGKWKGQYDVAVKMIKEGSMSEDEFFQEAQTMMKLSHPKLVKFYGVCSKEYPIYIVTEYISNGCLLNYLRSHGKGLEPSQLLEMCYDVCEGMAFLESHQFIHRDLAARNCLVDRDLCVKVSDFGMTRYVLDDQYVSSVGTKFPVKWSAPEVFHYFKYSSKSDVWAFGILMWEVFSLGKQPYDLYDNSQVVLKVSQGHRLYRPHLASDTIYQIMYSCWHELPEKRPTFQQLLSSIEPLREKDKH", "conditions": "read-out: % control", "outline": "as §1"}, "CSNK2A2": {"molecular_target": "CSNK2A2 (Homo sapiens, UniProt P19784)", "sequence (P19784 whole entry)": "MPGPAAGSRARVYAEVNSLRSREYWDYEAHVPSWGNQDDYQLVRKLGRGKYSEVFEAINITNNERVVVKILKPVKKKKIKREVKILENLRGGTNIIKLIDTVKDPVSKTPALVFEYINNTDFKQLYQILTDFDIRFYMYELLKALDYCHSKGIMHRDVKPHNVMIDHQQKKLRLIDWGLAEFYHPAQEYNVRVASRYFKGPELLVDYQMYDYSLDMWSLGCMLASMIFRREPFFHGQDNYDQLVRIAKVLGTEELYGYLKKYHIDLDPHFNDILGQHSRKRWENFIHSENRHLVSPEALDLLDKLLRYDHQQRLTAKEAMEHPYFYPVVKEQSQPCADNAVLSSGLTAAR", "conditions": "CSNK2A2, 1 μM; read-out: % control", "outline": "as §1"}, "CAMK2G": {"molecular_target": "CAMK2G (Homo sapiens, UniProt Q13555)", "sequence (Q13555 whole entry)": "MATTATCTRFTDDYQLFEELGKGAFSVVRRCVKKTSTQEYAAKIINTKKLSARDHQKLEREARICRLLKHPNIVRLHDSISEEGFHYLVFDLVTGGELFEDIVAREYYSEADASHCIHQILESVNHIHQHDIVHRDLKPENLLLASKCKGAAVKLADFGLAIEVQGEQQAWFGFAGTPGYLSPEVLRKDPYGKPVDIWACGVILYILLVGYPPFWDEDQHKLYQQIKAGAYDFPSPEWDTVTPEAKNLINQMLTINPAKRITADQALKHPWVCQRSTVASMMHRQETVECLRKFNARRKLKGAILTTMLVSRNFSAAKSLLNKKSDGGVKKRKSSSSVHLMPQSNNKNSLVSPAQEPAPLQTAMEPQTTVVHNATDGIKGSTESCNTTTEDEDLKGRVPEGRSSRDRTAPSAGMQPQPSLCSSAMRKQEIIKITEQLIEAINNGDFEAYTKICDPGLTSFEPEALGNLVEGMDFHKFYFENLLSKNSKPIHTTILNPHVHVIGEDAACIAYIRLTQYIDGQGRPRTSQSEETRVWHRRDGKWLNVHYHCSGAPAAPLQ", "conditions": "read-out: % control", "outline": "as §1"}, "PIK3CA(H1047L)": {"molecular_target": "T6, PIK3CA(H1047L) (Homo sapiens, UniProt P42336, H1047L)", "T6 construct": "purchased KinomeScan® (panel service)", "T6 sequence (P42336 whole entry H1047L)": "as the sequence (P42336 whole entry E545A) above, with A545E, H1047L counted along it", "conditions": "read-out: % control", "outline": "as §1"}}, "data": [{"compound": "CNc1c(-c2cnn([C@H]3CCN(C(C)=O)C[C@@H]3F)c2)cnc2[nH]cc(Cl)c12", "note": "[Compound 77, 1-((3S,4S)-4-(4-(3-chloro-4-(methylamino)-1H-pyrrolo[2,3-b]pyridin-5-yl)-1H-pyrazol-1-yl)-3-fluoropiperidin-1-yl)ethan-1-one]", "values": [{"measurement": "remaining binding at 1 µM", "setting": "[1]", "value": 100, "unit": "%"}, {"measurement": "remaining binding at 1 µM", "setting": "ERK5", "value": 100, "unit": "%"}, {"measurement": "remaining binding at 1 µM", "setting": "ZAK", "value": 70, "unit": "%"}, {"measurement": "remaining binding at 1 µM", "setting": "VEGFR2", "value": 2.8, "unit": "%"}, {"measurement": "remaining binding at 1 µM", "setting": "CDC2L1", "value": 99, "unit": "%"}, {"measurement": "remaining binding at 1 µM", "setting": "PIK3CA(E545A)", "value": 80, "unit": "%"}, {"measurement": "remaining binding at 1 µM", "setting": "MINK", "value": 17, "unit": "%"}, {"measurement": "remaining binding at 1 µM", "setting": "ALK", "value": 40, "unit": "%"}, {"measurement": "remaining binding at 1 µM", "setting": "HIPK4", "value": 84, "unit": "%"}, {"measurement": "remaining binding at 1 µM", "setting": "EPHA4", "value": 96, "unit": "%"}, {"measurement": "remaining binding at 1 µM", "setting": "MEK3", "value": 36, "unit": "%"}, {"measurement": "remaining binding at 1 µM", "setting": "BMX", "value": 88, "unit": "%"}, {"measurement": "remaining binding at 1 µM", "setting": "CSNK2A2", "value": 90, "unit": "%"}, {"measurement": "remaining binding at 1 µM", "setting": "CAMK2G", "value": 90, "unit": "%"}, {"measurement": "remaining binding at 1 µM", "setting": "PIK3CA(H1047L)", "value": 97, "unit": "%"}]}, {"compound": "CNc1c(-c2ccc(C(=O)N3CCC(N4CCOCC4)CC3)cc2)cnc2[nH]cc(Cl)c12", "note": "[Compound 96, (4-(3-chloro-4-(methylamino)-1H-pyrrolo[2,3-b]pyridin-5-yl)phenyl)(4-morpholinopiperidin-1-yl)methanone]", "values": [{"measurement": "remaining binding at 1 µM", "setting": "[1]", "value": 100, "unit": "%"}, {"measurement": "remaining binding at 1 µM", "setting": "ERK5", "value": 81, "unit": "%"}, {"measurement": "remaining binding at 1 µM", "setting": "ZAK", "value": 75, "unit": "%"}, {"measurement": "remaining binding at 1 µM", "setting": "VEGFR2", "value": 4.2, "unit": "%"}, {"measurement": "remaining binding at 1 µM", "setting": "CDC2L1", "value": 96, "unit": "%"}, {"measurement": "remaining binding at 1 µM", "setting": "PIK3CA(E545A)", "value": 62, "unit": "%"}, {"measurement": "remaining binding at 1 µM", "setting": "MINK", "value": 6, "unit": "%"}, {"measurement": "remaining binding at 1 µM", "setting": "ALK", "value": 46, "unit": "%"}, {"measurement": "remaining binding at 1 µM", "setting": "HIPK4", "value": 64, "unit": "%"}, {"measurement": "remaining binding at 1 µM", "setting": "EPHA4", "value": 100, "unit": "%"}, {"measurement": "remaining binding at 1 µM", "setting": "MEK3", "value": 4.2, "unit": "%"}, {"measurement": "remaining binding at 1 µM", "setting": "BMX", "value": 93, "unit": "%"}, {"measurement": "remaining binding at 1 µM", "setting": "CSNK2A2", "value": 92, "unit": "%"}, {"measurement": "remaining binding at 1 µM", "setting": "CAMK2G", "value": 95, "unit": "%"}, {"measurement": "remaining binding at 1 µM", "setting": "PIK3CA(H1047L)", "value": 92, "unit": "%"}]}, {"compound": "O=C(c1ccc(-c2cnc3[nH]cc(Cl)c3c2NC2CCCC2)cc1)N1CCC(N2CCOCC2)CC1", "note": "[Compound 101, (4-(3-chloro-4-(cyclopentylamino)-1H-pyrrolo[2,3-b]pyridin-5-yl)phenyl)(4-morpholinopiperidin-1-yl)methanone]", "values": [{"measurement": "remaining binding at 1 µM", "setting": "[1]", "value": 88, "unit": "%"}, {"measurement": "remaining binding at 1 µM", "setting": "ERK5", "value": 100, "unit": "%"}, {"measurement": "remaining binding at 1 µM", "setting": "ZAK", "value": 86, "unit": "%"}, {"measurement": "remaining binding at 1 µM", "setting": "VEGFR2", "value": 33, "unit": "%"}, {"measurement": "remaining binding at 1 µM", "setting": "CDC2L1", "value": 94, "unit": "%"}, {"measurement": "remaining binding at 1 µM", "setting": "PIK3CA(E545A)", "value": 98, "unit": "%"}, {"measurement": "remaining binding at 1 µM", "setting": "MINK", "value": 62, "unit": "%"}, {"measurement": "remaining binding at 1 µM", "setting": "ALK", "value": 75, "unit": "%"}, {"measurement": "remaining binding at 1 µM", "setting": "HIPK4", "value": 79, "unit": "%"}, {"measurement": "remaining binding at 1 µM", "setting": "EPHA4", "value": 88, "unit": "%"}, {"measurement": "remaining binding at 1 µM", "setting": "MEK3", "value": 33, "unit": "%"}, {"measurement": "remaining binding at 1 µM", "setting": "BMX", "value": 34, "unit": "%"}, {"measurement": "remaining binding at 1 µM", "setting": "CSNK2A2", "value": 100, "unit": "%"}, {"measurement": "remaining binding at 1 µM", "setting": "CAMK2G", "value": 96, "unit": "%"}, {"measurement": "remaining binding at 1 µM", "setting": "PIK3CA(H1047L)", "value": 100, "unit": "%"}]}]}
